Measurements reported in US20230053524A1, “FUNGICIDES TO PREVENT AND CONTROL FUNGAL PATHOGENS” (priority 2020, published 2023).

Assays:
Type in all cases: cell-based
Conditions in all cases: 168 h, read-out: ED50
Fusarium graminearum = experiment: microbe, parasite or virus in culture
Alternaria radicina = experiment: In vitro bioassay, mycelia growth on PDA (Example 1)
[1] = test system: Plectosphaerella cucumerina; experiment: as above

Compound | EC50 (Fusarium graminearum) [µM] | EC50 (Alternaria radicina) [µM] | EC50 [1] [µM]
CS(=O)(=O)CCCCCCCCN=C=S [0/100, 1-Isothiocyanato-8-(methylsulfonyl)-octane] | 536 | 763 | 480
C[S+]([O-])CCCCCCCCN=C=S (stereo not drawn) [100/0, 1-Isothiocyanato-8-(methylsulfinyl)-octane] | 331 | 228 | 312
